The values that follow come from US20260132160A1, “IRON REPLACEMENT TREATMENTS” (The General Hospital Corporation, priority 2022, published 2026).

The nature of series [1]: pH-potentiometric titration, Zn2+ complex. In kind it is physicochemical. The following applies: pH 7.4. On the procedure:
(§1) The aqueous solutions thermodynamics of BBG and its corresponding complexes of Fe^3+, Cu^2+, and Zn^2+ were interrogated through pH-potentiometric titration of BBG (L) in the absence and presence of 1 molar equivalent of Fe^3+, Cu^2+, or Zn^2+, FIG. 13A.
(§2) pH-potentiometric measurements were performed using an Orion ROSS Ultra pH electrode and temperature-controlled reaction vessel held at 310 K. A standardized solution of 0.10 M NaOH was used as the titrant. The electrode was calibrated prior to each titration by titrating a standardized HCl(aq) solution at ionic strength 0.10 using NaCl as the inert electrolyte with the standardized NaOH titrant. A working slope and intercept were generated by plotting mV as a function of calculated pH, which enabled direct conversion of electrode readings to [H^+] during sample titrations. pH values recorded during the titrations refers to hydrogen ion concentration. All titration samples were prepared in solutions of 0.10 M NaCl in distilled, deionized water. Ligand solutions were prepared by dissolving a weighed quantity into water and concentration was determined from the effective weight of the ligand and confirmed by the quantity of NaOH required to consume 1 molar equivalent of ligand proton. […]

Series [2] can be described thus: Stability of Fe-BBG against trans-chelation by endogenous chelators (UV-vis). Type of series: physicochemical. The text has this:
In other words, the ligand BBG binds to Fe^3+ with an estimated 230±40 times higher affinity than citrate.

Series [3] in a line: Human blood plasma incubation, ultrafiltration and ICP-MS of metals. The conditions noted are these: 0-5 mM BBG, 1 h, 37° C., 10 kDa cutoff. On the procedure:
The plasma concentrate and ultrafiltrate were assayed for concentrations of Cu and Zn, as well as Mn, Mg, and Ca by ICP-MS.
To illustrate this point, human blood plasma samples containing between 0-5 mM BBG were incubated for 1 h at 37° C. before separation of the low-molecular weight solution components by ultrafiltration through a 10 kDa molecular weight cutoff filter. The plasma concentrate and ultrafiltrate were assayed for concentrations of Cu and Zn, as well as Mn, Mg, and Ca by ICP-MS, FIG. 14.

The next series deals with holo-transferrin (Homo sapiens, UniProt P02787). Briefly: Fe removal from holo-transferrin by BBG ligand. Type of series: biochemical. The conditions noted are these: 24 h, pH 7.4, 37° C. On the procedure:
Solutions of 20 μM holo-transferrin and BBG of concentration ranging between 0 and 100 μM (0-5 molar equivalents) were incubated for 24 h in pH 7.4 50 mM HEPES buffer supplemented with 25 mM carbonate at 37° C., and Fe removal from transferrin was monitored using fluorescence spectroscopy (excitation wavelength: 280 nm).
In another experiment, […] holo-transferrin and was incubated with 100 μM BBG (10 molar equivalents) for 24 h in pH 7.4 50 mM HEPES buffer supplemented with 25 mM carbonate at 37° C., and Fe removal monitored by urea gel electrophoresis assay, FIG. 11B.

Series [4] in a line: pH-potentiometric titration, Cu2+ complex. In kind it is physicochemical. The conditions noted are these: pH 7.4. On the procedure: as §1, §2
The conditions of series [5]: cited from earlier work.

Sequence of holo-transferrin (P02787 20-698): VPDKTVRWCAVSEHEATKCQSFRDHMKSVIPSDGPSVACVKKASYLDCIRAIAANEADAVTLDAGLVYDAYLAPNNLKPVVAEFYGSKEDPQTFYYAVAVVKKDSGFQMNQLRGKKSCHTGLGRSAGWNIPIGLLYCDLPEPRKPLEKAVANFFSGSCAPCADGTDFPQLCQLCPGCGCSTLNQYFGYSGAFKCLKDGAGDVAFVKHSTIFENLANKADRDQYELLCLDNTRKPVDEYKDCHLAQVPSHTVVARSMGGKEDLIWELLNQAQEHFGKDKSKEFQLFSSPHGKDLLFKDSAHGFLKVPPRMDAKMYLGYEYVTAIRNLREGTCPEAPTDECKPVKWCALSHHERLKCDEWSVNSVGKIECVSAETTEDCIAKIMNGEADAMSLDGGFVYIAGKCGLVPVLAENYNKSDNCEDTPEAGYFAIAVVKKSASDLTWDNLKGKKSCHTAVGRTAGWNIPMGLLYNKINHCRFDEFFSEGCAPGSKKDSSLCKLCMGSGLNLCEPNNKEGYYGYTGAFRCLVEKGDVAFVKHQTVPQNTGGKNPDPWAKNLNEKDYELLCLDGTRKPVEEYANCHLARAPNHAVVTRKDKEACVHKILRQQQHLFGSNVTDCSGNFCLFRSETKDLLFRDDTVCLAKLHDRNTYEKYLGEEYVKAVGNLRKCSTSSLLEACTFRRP

For the compound `O=C(O)CC[C@@H](C(=O)O)N(Cc1ccccc1O)Cc1ccccc1O` [BBG, N,N-bis(2-hydroxybenzyl)-L-glutamic acid], the “greater stability of Fe^3+ binding than Zn^2+” value in series [1] was 15 orders of magnitude. Moreover, the “Fe^3+ affinity relative to endogenous chelators” value in series [2] was “substantially higher affinity”. In addition, the “Fe^3+ affinity relative to citrate” value in series [2] (estimated from citrate challenge) is listed as 230±40 times. Moreover, the “metal ion content remaining in the plasma concentrate” value in series [3] is “little effect”. Moreover, the “Fe removal from transferrin (urea gel electrophoresis)” value at holo-transferrin (10 μM holo-transferrin, 100 μM BBG (10 molar equivalents)) is “No evidence of Fe removal”. Moreover, the “Fe removal from transferrin (fluorescence spectroscopy)” value on holo-transferrin (20 μM holo-transferrin, 0-100 μM BBG) is recorded as “No evidence of Fe removal”. The “greater stability of Fe^3+ binding than Cu^2+” value in series [4] is 9 orders of magnitude.
“transferrin: the iron carrier protein transferrin”: in series [5], the “log Kcond at pH 7.4 for Fe^3+, first binding site” value is reported as “about 20.7” and the “log Kcond at pH 7.4 for Fe^3+, second binding site” value was approximately 19.4.
